Reference: patent publication US5622934A, “Peptides with an insulin-like action” (priority 1991, dated 1997)

Tests used:
[1] = tested on: rat fat cells; assay: Lipogenesis: conversion of glucose to toluene-soluble products in isolated rat fat cells; format: cell-based; details: for Concentration [μM] at which 25% of the max. HI action is reached (lipogenesis): 25% of the maximum human insulin action; for Lipogenesis % of the max. HI action: 90 min at 37° C., D-[3-3H]glucose, human insulin (HI) = 100%
Description: (§1) The biological activity of the peptides of formula I according to the invention is determined with the aid of preparatively isolated rat fat cells and diaphragm fragments.
(§2) Rat fat cells were prepared as follows: Fatty tissue of the epididymis (Wistar rat, 160-180 g, no feed restriction) is digested with collagenase and the resulting isolated fat cells are washed several times by flotation.
This test determines the insulin-stimulatable conversion of glucose to toluene-soluble products (triglycerides, phospholipids, fatty acids), requiring the glucose transport and the triglyceride (glycerol-3-P synthesis, esterification)/phospholipid/fatty acid synthesis, including the insulin signal transmission cascade.
Rat fat cells in KRH buffer are incubated for 90 min at 37° C. with D-[3-^3 H]glucose (0.2 mM or 1 mM final concentration) in the presence or absence of insulin or peptides according to the invention. By the addition of a toluene-soluble scintillation cocktail, the cells are digested and the lipids separated from water-soluble products and the incubation medium. After phase separation, the radioactivity incorporated into lipids is determined by scintillation measurement directly without removal of the aqueous phase ([^3 H]lipid [dpm×10^-3 ]).
(§3) The action of human insulin (HI) is given a value of 100%. The concentration data of the peptides according to the invention used are based on the concentration at which 25% or 20% of the maximum HI action is reached.

[2] = tested on: rat diaphragm fragments; assay: Glycogenesis: glycogen synthesis in rat diaphragm fragments; format: cell-based; details: for Concentration [μM] at which 25% of the max. HI action is reached (glycogenesis): 25% of the maximum human insulin action; for Glycogenesis % of the max. HI action: 15 min at 37° C., 50 μM D-[U-14C]glucose, human insulin (HI) = 100%
Description: as §1
Preparation of rat diaphragm fragments: Small tissue fragments (5 mm diameter) are punched out of hemidiaphragms (Wistar rat, 60-70 g, no feed restriction) which have been washed several times.
This test determines the insulin-stimulatable glycogen synthesis in muscle cells, comprising the glucose transport via the plasma membrane and the conversion of the glucose to glycogen, including the functional insulin signal transmission cascade.
Diaphragm fragments are incubated for 15 min at 37° C. in Krebs-Ringer-Henseleit buffer (KRH buffer) with 50 μM D-[U-^14 C]glucose in the presence or absence of insulin or the peptides according to the invention. After the medium has been filtered with suction, the tissue fragments are intensively washed, frozen at -70° C. and then homogenized at 2° C. in a Polytron pulverizer. The homogenate is centrifuged (2000 g) and the supernatant is pipetted onto filter paper. To determine the glycogen formed, the filters are transferred into trichloroacetic acid (TCA) (5%), washed with ethanol and acetone and dried and their radioactivity is determined via scintillation measurement ([^14 C]glycogen [dpm×10^-3 ]).
as §3

[3] = tested on: plasma membrane vesicles from rat fat cells; assay: Glucose transport activity in isolated plasma membrane vesicles; format: biochemical; details: for Concentration [μM] at which 20% of the max. HI action is reached (glucose transport): 20% of the maximum human insulin action; for Glucose transport % of the max. HI action: 30 min at 25° C., then 10 sec with 50 μM D-[3-3H]glucose, human insulin (HI) = 100%
Description: as §1, §2
C) Glucose transport activity
Isolated plasma membrane vesicles are obtained from rat fat cells by washing the fat cells twice in homogenization buffer (20 mM trihydroxyaminomethane (Tris)/HCl, pH 7.4, 1 mM, 4° C., EDTA, 0.25M sucrose) and then homogenizing them in 20 ml of the same buffer (glass homogenizer with Teflon pestle).
The homogenate is centrifuged (16,000×g, 15 min) and the sediment is suspended in the same buffer and centrifuged again. The sediment is suspended in 5 ml of homogenization buffer and layered onto a sucrose cushion (1.12M sucrose, 20 mM Tris/HCl, pH 7.4, 1 mM EDTA); after centrifugation (100,000×g, 70 min), the interphase containing the plasma membrane vesicles is removed with a syringe, diluted with 45 ml of buffer and centrifuged again (48,000×g, 45 min). The sediment is suspended in 10 ml of buffer, centrifuged again and resuspended in 3 ml of buffer.
Isolated plasma membrane vesicles are incubated for 30 min at 25° C. in the presence or absence of insulin or the peptides according to the invention. The vesicles are then incubated for 10 sec at 25° C. with 50 μM D-[3-^3 H]glucose and […] of the same specific radioactivity. The mixtures are rapidly filtered with suction on nitrocellulose filters. The filters are washed copiously and dried. Their radioactivity is determined by liquid scintillation measurement. The specific transport (D-[^3 H]glucose/L-[^4 C]glucose [dpm×10^-3 ]) is calculated as the difference between the [^3 H] and [^14 C] radioactivity.
as §3

| Substance | Concentration [μM] at which 25% of the max. HI action is reached (lipogenesis) [1] | Lipogenesis % of the max. HI action [1] | Concentration [μM] at which 25% of the max. HI action is reached (glycogenesis) [2] | Glycogenesis % of the max. HI action [2] | Concentration [μM] at which 20% of the max. HI action is reached (glucose transport) [3] | Glucose transport % of the max. HI action [3] |
| --- | --- | --- | --- | --- | --- | --- |
| H--L--Tyr--L--Cys--L--Asn--NH--CH2 --CH2 --NH2 [Example 10] | 330 µM | 30% | 450 µM | 25% | 300 µM | 42% |
| H--(3--(thien--2--yl)--L--Ala)--L--Cys--L--Asn--OH [Example 8] | 450 µM | 26% | 375 µM | 31% | 410 µM | 25% |
| H--L--Asn--L--Cys--L--Tyr--NH--CH2 --CH2 OH [Example 3] | 375 µM | 31% | 285 µM | 42% | 225 µM | 38% |
| H--L--Cys--L--Tyr--NH--CH2 --CH2 OH [Example 6] |  | 17% | 480 µM | 32% | 750 µM | 24% |
| H--D--Tyr--L--Cys--L--Asn--NH--CH2 --CH2 OH [Example 4] | 410 µM | 31% |  | 23% | 260 µM | 38% |
| H--L--Tyr--L--Cys--L--Asn--NH--(CH2)2 --O--PO(OH)--O(CH2)2 --CN [Example 13] | 120 µM | 33% | 100 µM | 31% | 140 µM | 36% |
| Acetyl--L--Tyr--L--Cys--L--Asn--NH--CH2 --CH2 OH [Example 11] | 200 µM | 36% | 240 µM | 45% | 260 µM | 40% |
| H--L--Tyr--L--Cys--L--Asn--OH [Example 12] | 750 µM | 26% |  | 15% | 880 µM | 20% |
| H--L--Tyr--L--Cys--NH--(CH2)4 --NH2 [Example 7] |  | 18% |  | 2% |  | 10% |
| H--L--Tyr--L--Cys--NH--CH2 --CH2 --NH2 [Example 2] | 500 µM | 32% | 650 µM | 28% | 350 µM | 40% |
| L--Tyr--L--Cys--L--Asn--NH--(CH2)2 --O--PO(OH)--O--6Manα1--2--Manα1--6Manα1--O--CH3 [Example 16] | 125 µM | 24% | 135 µM | 25% | 152 µM | 29% |
| H--L--Tyr--L--Cys--L--Asn--NH--CH2 --CH2 --NH--gluconic acid [Example 9] |  | 12% |  | 11% |  | 15% |
| H--L--Cys--L--Asn--NH--CH2 --CH2 OH [Example 5] |  | 21% |  | 16% | 600 µM | 25% |
| H--L--Tyr--L--Cys--L--Asn--NH--(CH2)2 --O--PO(OH)--O--6Manα1--2Manα1--O--CH3 [Example 15] | 142 µM | 35% | 139 µM | 29% | 122 µM | 32% |
